Results from patent publication US11549142B2, “CETP inhibitors for therapeutic use” (Hoffmann-La Roche Inc., priority 2013, dated 2023).
“And” between values parts separate entries of the source, which are not always exact repeats. Equal entries are not always repeated. “Also recorded” adds a separate entry of the source.

Tested on: patients recently hospitalized for an Acute Coronary Syndrome (ACS)
Assay: dal-OUTCOMES phase III trial with pharmacogenomic (GWAS) analysis of cardiovascular events by ADCY9 genotype
Assay type: in vivo, human
Set-up: key to Predicted response: R: Responsive; PR: Partial Responsive; NR: Non Responsive
Protocol: The dalcetrapib mortality and morbidity trial (dal-OUTCOMES) was a double-blind, randomized, placebo-controlled, parallel group, multi-centre study in stable CHD patients recently hospitalized for acute coronary syndrome (ACS). The study was conducted to test the hypothesis that CETP inhibition will reduce the risk of recurrent cardiovascular events in patients with recent ACS by raising levels of HDL-C through CETP inhibition. Eligible patients entered a single-blind placebo run-in period of approximately 4 to 6 weeks to allow for patients to stabilize and for completion of planned revascularization procedures. At the end of the run-in period, eligible patients in stable condition were randomized in a 1:1 ratio to 600 mg of dalcetrapib or placebo on top of evidence-based medical care for ACS. Dalcetrapib is an inhibitor of cholesterol-ester transfer protein (CETP). […] The trial was interrupted in May 2012 by the DSMB on grounds of futility.
Dal-OUTCOMES trial (NC20971) was a double blind, randomized, placebo-controlled, parallel group, multi-center, phase III study to assess the safety and efficacy of the CETP inhibitor dalcetrapib in patients recently hospitalized for an Acute Coronary Syndrome (ACS). At time of the interim analysis the study included 15871 randomized patients, distributed over two treatment arms: placebo (7933 patients) and dalcetrapib (600 mg daily; 7938 patients). […] The dal-OUTCOMES study details can be found in G. Schwartz et al., N. Engl. J. Med. 367; 22, 2012.\
Whole genome analysis was performed in GLP-environment at the Beaulieu-Saucier Pharmacogenomics Centre. The Infinium® HumanOmni25Exome-8v1_A BeadChip (Illumina, San Diego, Calif.) including 2,567,845 genomic markers was used and processed according to the manufacturer's specifications. Approximately 200 ng of genomic DNA was whole-genome amplified, fragmented, and hybridized to locus-specific probes bound to the surface of each BeadChip. DNA was genotyped using a fluorescently labelled single base extension assay. BeadChips were scanned and analyzed using the Illumina® iScan Reader. Infinium® process controls were monitored and all results were within manufacturer's specifications. Scanned images were analyzed using Illumina's GenomeStudio® version 2011.1 with the GenTrain 2.0 cluster algorithm, using a No-Call threshold of 0.15, without manual cluster adjustment and using the manufacturer's Illumina® HumanOmni25Exome-8v1_A cluster file. […] Three genotyping files in PLINK format generated by GenomeStudio® were combined and transformed to binary PLINK format.
Genotyping completion rate for samples and SNPs was set to 98%. SNPs with genotyping plate bias (based on the 96 well plates used to dilute DNA samples) were flagged but not removed as the effect of genetic ancestry could not be excluded. Pairwise IBD was used to conduct close familial relationship checks. We flagged and removed all but one pair-member of related pairs and sample duplicates (IBS2*ratio>0.80) based on a selection of uncorrelated SNPs (r^2<0.1). The pairwise IBS matrix was used as a distance metric to identify cryptic relatedness among samples and sample outliers by multi-dimensional scaling (MDS). The first two MDS components of each subject were plotted including the genotypes of HapMap CEU, JPT-CHB, and YRI data (keeping only founder individuals). Outliers from the main Caucasian cluster were flagged and removed by k-nearest neighbour. (Supplementary FIG. 1) The scree plot and the cumulative explained variance were computed using the smartpca program of the EIGENSOFT suite (version 3.0). Options used were a numoutlieriter (maximum number of outlier removal iterations) of 0 (turned off) and altnormstyle (normalization formula) equal to NO. ^4 (Supplementary FIG. 2)
A statistical analysis plan was developed at the Beaulieu-Saucier Pharmacogenomics Centre and the final version approved prior to genotyping completion in October 2012. […]

## CCC(CC)CC1(C(=O)Nc2ccccc2SC(=O)C(C)C)CCCCC1 [dalcetrapib, thioisobutyric acid S-(2-{[1-(2-ethyl-butyl)-cyclohexanecarbonyl]-amino}-phenyl) ester]
All patients, 600 mg daily
  event rate in the primary efficacy endpoint (cardiovascular events), dalcetrapib arm compared to the placebo arm: lack of efficacy relative to statins alone; also recorded: did not show a significant reduction in cardiovascular events; also recorded: no evidence of reduction of the event rate
Patients on treatment, dal-OUTCOMES
  HDL-c: marked increase
rs1967309, dal-Outcomes treatment arm, Cox proportional hazards
  HR for events, additive genetic effect of one allele: 0.65 (95% CI 0.55, 0.76)
rs1967309 AA vs GG
  HR (95% CI) for time to events, dalcetrapib treatment arm only, genotype comparison: 0.40 (95% CI 0.28, 0.57) and 0.4 (0.28, 0.57)
rs1967309 GA vs GG
  HR (95% CI) for time to events, dalcetrapib treatment arm only, genotype comparison: 0.68 (95% CI 0.55, 0.84) and 0.68 (0.56, 0.84)
rs1967309 genotype AA
  Predicted response: R
rs1967309 genotype GA
  HR for time to events, dalcetrapib treatment arm versus placebo arm: 0.94
  Predicted response: PR
rs1967309 genotype GG
  HR for time to events, dalcetrapib treatment arm versus placebo arm: 1.27
  Predicted response: NR
rs2239310 AG vs AA
  HR (95% CI) for time to events, dalcetrapib treatment arm only, genotype comparison: 0.71 (0.58,0.87)
rs2239310 GG vs AA
  HR (95% CI) for time to events, dalcetrapib treatment arm only, genotype comparison: 0.43 (0.29, 0.63)
rs2239310 genotype AA
  HR for time to events, dalcetrapib treatment arm versus placebo arm: 1.16
  Predicted response: NR
rs2239310 genotype AG
  HR for time to events, dalcetrapib treatment arm versus placebo arm: 0.96
  Predicted response: PR
rs2239310 genotype GG
  HR for time to events, dalcetrapib treatment arm versus placebo arm: 0.6
  Predicted response: R
rs2283497 AA vs CC
  HR (95% CI) for time to events, dalcetrapib treatment arm only, genotype comparison: 0.53 (0.37, 0.76)
rs2283497 CA vs CC
  HR (95% CI) for time to events, dalcetrapib treatment arm only, genotype comparison: 0.83 (0.67, 1.02)
rs2283497 genotype AA
  HR for time to events, dalcetrapib treatment arm versus placebo arm: 0.57
  Predicted response: R
rs2283497 genotype CA
  HR for time to events, dalcetrapib treatment arm versus placebo arm: 0.99
  Predicted response: PR
rs2283497 genotype CC
  HR for time to events, dalcetrapib treatment arm versus placebo arm: 1.23
  Predicted response: NR
rs2531967 AA vs GG
  HR (95% CI) for time to events, dalcetrapib treatment arm only, genotype comparison: 0.5 (0.29, 0.86)
rs2531967 GA vs GG
  HR (95% CI) for time to events, dalcetrapib treatment arm only, genotype comparison: 0.75 (0.61, 0.93)
rs2531967 genotype AA
  HR for time to events, dalcetrapib treatment arm versus placebo arm: 0.67
  Predicted response: R
rs2531967 genotype GA
  HR for time to events, dalcetrapib treatment arm versus placebo arm: 0.86
  Predicted response: PR
rs2531967 genotype GG
  HR for time to events, dalcetrapib treatment arm versus placebo arm: 1.12
  Predicted response: NR
rs3730119 AA vs GG
  HR (95% CI) for time to events, dalcetrapib treatment arm only, genotype comparison: 0.49 (0.22, 1.1)
rs3730119 GA vs GG
  HR (95% CI) for time to events, dalcetrapib treatment arm only, genotype comparison: 0.78 (0.62, 0.99)
rs3730119 genotype AA
  HR for time to events, dalcetrapib treatment arm versus placebo arm: 0.48
  Predicted response: R
rs3730119 genotype GA
  HR for time to events, dalcetrapib treatment arm versus placebo arm: 0.86
  Predicted response: PR
rs3730119 genotype GG
  HR for time to events, dalcetrapib treatment arm versus placebo arm: 1.08
  Predicted response: NR
rs4786454 AA vs GG
  HR (95% CI) for time to events, dalcetrapib treatment arm only, genotype comparison: 0.37 (0.15, 0.9)
rs4786454 GA vs GG
  HR (95% CI) for time to events, dalcetrapib treatment arm only, genotype comparison: 0.69 (0.54, 0.87)
rs4786454 genotype AA
  HR for time to events, dalcetrapib treatment arm versus placebo arm: 0.52
  Predicted response: R
rs4786454 genotype GA
  HR for time to events, dalcetrapib treatment arm versus placebo arm: 0.89
  Predicted response: PR
rs4786454 genotype GG
  HR for time to events, dalcetrapib treatment arm versus placebo arm: 1.06
  Predicted response: NR
rs8049452 AA vs GG
  HR (95% CI) for time to events, dalcetrapib treatment arm only, genotype comparison: 1.98 (1.51, 2.61)
rs8049452 GA vs GG
  HR (95% CI) for time to events, dalcetrapib treatment arm only, genotype comparison: 1.26 (0.99, 1.6)
rs8049452 genotype AA
  HR for time to events, dalcetrapib treatment arm versus placebo arm: 1.55
  Predicted response: NR
rs8049452 genotype GA
  HR for time to events, dalcetrapib treatment arm versus placebo arm: 0.97
  Predicted response: PR
rs8049452 genotype GG
  HR for time to events, dalcetrapib treatment arm versus placebo arm: 0.78
  Predicted response: R
rs8061182 AG vs AA
  HR (95% CI) for time to events, dalcetrapib treatment arm only, genotype comparison: 1.23 (0.98, 1.56)
rs8061182 GG vs AA
  HR (95% CI) for time to events, dalcetrapib treatment arm only, genotype comparison: 1.81 (1.37, 2.39)
rs8061182 genotype AA
  HR for time to events, dalcetrapib treatment arm versus placebo arm: 0.79
  Predicted response: R
rs8061182 genotype AG
  HR for time to events, dalcetrapib treatment arm versus placebo arm: 0.99
  Predicted response: PR
rs8061182 genotype GG
  HR for time to events, dalcetrapib treatment arm versus placebo arm: 1.55
  Predicted response: NR
rs11647828 AG vs AA
  HR (95% CI) for time to events, dalcetrapib treatment arm only, genotype comparison: 0.74 (0.6, 0.92)
rs11647828 GG vs AA
  HR (95% CI) for time to events, dalcetrapib treatment arm only, genotype comparison: 0.46 (0.33, 0.63)
rs11647828 genotype AA
  HR for time to events, dalcetrapib treatment arm versus placebo arm: 1.33
  Predicted response: NR
rs11647828 genotype AG
  HR for time to events, dalcetrapib treatment arm versus placebo arm: 0.97
  Predicted response: PR
rs11647828 genotype GG
  HR for time to events, dalcetrapib treatment arm versus placebo arm: 0.61
  Predicted response: R
rs12595857 AG vs AA
  HR (95% CI) for time to events, dalcetrapib treatment arm only, genotype comparison: 0.7 (0.57, 0.87)
rs12595857 GG vs AA
  HR (95% CI) for time to events, dalcetrapib treatment arm only, genotype comparison: 0.45 (0.33, 0.62)
rs12595857 genotype AA
  HR for time to events, dalcetrapib treatment arm versus placebo arm: 1.27
  Predicted response: NR
rs12595857 genotype AG
  HR for time to events, dalcetrapib treatment arm versus placebo arm: 0.95
  Predicted response: PR
rs12595857 genotype GG
  HR for time to events, dalcetrapib treatment arm versus placebo arm: 0.7
  Predicted response: R
rs12935810 AA vs GG
  HR (95% CI) for time to events, dalcetrapib treatment arm only, genotype comparison: 1.87 (1.42, 2.48)
rs12935810 GA vs GG
  HR (95% CI) for time to events, dalcetrapib treatment arm only, genotype comparison: 1.3 (1.02, 1.65)
rs12935810 genotype AA
  HR for time to events, dalcetrapib treatment arm versus placebo arm: 1.28
  Predicted response: NR
rs12935810 genotype GA
  HR for time to events, dalcetrapib treatment arm versus placebo arm: 1.03
  Predicted response: NR
rs12935810 genotype GG
  HR for time to events, dalcetrapib treatment arm versus placebo arm: 0.79
  Predicted response: R
rs13337675 AG vs AA
  HR (95% CI) for time to events, dalcetrapib treatment arm only, genotype comparison: 0.84 (0.68, 1.03)
rs13337675 GG vs AA
  HR (95% CI) for time to events, dalcetrapib treatment arm only, genotype comparison: 0.7 (0.43, 1.14)
rs13337675 genotype AA
  HR for time to events, dalcetrapib treatment arm versus placebo arm: 1.07
  Predicted response: NR
rs13337675 genotype AG
  HR for time to events, dalcetrapib treatment arm versus placebo arm: 0.89
  Predicted response: PR
rs13337675 genotype GG
  HR for time to events, dalcetrapib treatment arm versus placebo arm: 1.03
  Predicted response: PR
rs17136707 AG vs AA
  HR (95% CI) for time to events, dalcetrapib treatment arm only, genotype comparison: 0.62 (0.47, 0.81)
rs17136707 GG vs AA
  HR (95% CI) for time to events, dalcetrapib treatment arm only, genotype comparison: 0.16 (0.02, 1.15)
rs17136707 genotype AA
  HR for time to events, dalcetrapib treatment arm versus placebo arm: 1.06
  Predicted response: NR
rs17136707 genotype AG
  HR for time to events, dalcetrapib treatment arm versus placebo arm: 0.8
  Predicted response: PR
rs17136707 genotype GG
  HR for time to events, dalcetrapib treatment arm versus placebo arm: 0.37
  Predicted response: R
rs74702385 AA vs GG
  HR (95% CI) for time to events, dalcetrapib treatment arm only, genotype comparison: 0.14 (0.02, 1)
rs74702385 GA vs GG
  HR (95% CI) for time to events, dalcetrapib treatment arm only, genotype comparison: 0.63 (0.48, 0.83)
rs74702385 genotype AA
  HR for time to events, dalcetrapib treatment arm versus placebo arm: 0.26
  Predicted response: R
rs74702385 genotype GA
  HR for time to events, dalcetrapib treatment arm versus placebo arm: 0.84
  Predicted response: R
rs74702385 genotype GG
  HR for time to events, dalcetrapib treatment arm versus placebo arm: 1.05
  Predicted response: NR
rs111590482 AG vs AA
  HR (95% CI) for time to events, dalcetrapib treatment arm only, genotype comparison: 0.64 (0.49, 0.84)
rs111590482 GG vs AA
  HR (95% CI) for time to events, dalcetrapib treatment arm only, genotype comparison: 0.15 (0.02, 1.1)
rs111590482 genotype AA
  HR for time to events, dalcetrapib treatment arm versus placebo arm: 1.04
  Predicted response: NR
rs111590482 genotype AG
  HR for time to events, dalcetrapib treatment arm versus placebo arm: 0.85
  Predicted response: R
rs111590482 genotype GG
  HR for time to events, dalcetrapib treatment arm versus placebo arm: 0.26
  Predicted response: R
